Assay results published in the supplement of paper PMC10307832.

Experiments:
Assay in all cases: relative viability (nuclei count vs DMSO), 5 days (fraction); higher = more cells survive
[1] = compound: CC1=CN2C(=O)C=C(N=C2C(=C1)C(C)NC3=CC=CC=C3)N4CCOCC4 [TGX 221] + C[C@]1(O)C[C@@H](c2nc(-c3ccc4ccc(-c5ccccc5)nc4c3)c3c(N)nccn32)C1 [Linsitinib] (partner 1 µM)
Method in brief: (§1)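 Lung cancer cell lines in 1536-well plates were dosed by pin tool the day after seeding, either with one drug alone or with a fixed anchor-drug dose plus five library-drug doses (not always all listed) in √10 steps. After 5 days, cells were fixed and their nuclei stained in one step (final 0.05% Triton X-100, 1% formaldehyde, 1 ug/ml Hoechst), then counted on 4× images. Relative viability is the nuclei count in treated wells divided by that in vehicle wells. Values are medians of duplicate plates.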

[2] = compound: O=C(CCCCCCNC(=O)c1cnc(N(c2ccccc2)c2ccccc2)nc1)NO [Ricolinostat] + COc1cccc2cc(-c3nc([C@H]4CC[C@H](C(=O)O)CC4)n4ncnc(N)c34)[nH]c12 [OSI-027] (partner 0.5 µM)
Method in brief: as §1

[3] = compound: O=C(CCCCCCNC(=O)c1cnc(N(c2ccccc2)c2ccccc2)nc1)NO [Ricolinostat] + NC(=O)Nc1cc(-c2cccc(F)c2)sc1C(=O)N[C@H]1CCCNC1 [AZD7762] (partner 0.2 µM)
Method in brief: as §1

[4] = compound: O=C(CCCCCCNC(=O)c1cnc(N(c2ccccc2)c2ccccc2)nc1)NO [Ricolinostat] + Nc1nc2[nH]cc(CCc3ccc(C(=O)N[C@@H](CCC(=O)O)C(=O)O)cc3)c2c(=O)[nH]1 [Pemetrexed] (partner 0.2 µM)
Method in brief: as §1

Row | Cell Line | relative viability ([1]; first compound 0.08 µM) | relative viability ([1]; first compound 0.253 µM) | relative viability ([1]; first compound 0.8 µM) | relative viability ([1]; first compound 2.53 µM) | relative viability ([1]; first compound 8 µM) | relative viability ([2]; first compound 0.08 µM) | relative viability ([2]; first compound 0.253 µM) | relative viability ([2]; first compound 2.53 µM) | relative viability ([3]; first compound 0.08 µM) | relative viability ([3]; first compound 0.253 µM) | relative viability ([3]; first compound 0.8 µM) | relative viability ([3]; first compound 2.53 µM) | relative viability ([4]; first compound 0.08 µM) | relative viability ([4]; first compound 0.253 µM) | relative viability ([4]; first compound 0.8 µM) | relative viability ([4]; first compound 2.53 µM) | relative viability ([2]; first compound 0.8 µM)
1 | EKVX | 0.756 | 0.851 | 0.727 | 0.715 | 0.637 | 0.6 | 0.714 | 0.677 | 0.673 | 0.732 | 0.654 | 0.487 | 0.34 | 0.394 | 0.335 | 0.406 | 
2 | NCI-H358 | 0.757 | 0.684 | 0.732 | 0.65 | 0.588 | 0.584 | 0.802 | 0.954 |  | 0.519 | 0.414 | 0.312 | 0.179 | 0.194 | 0.183 | 0.156 | 0.734
3 | HCC-44 | 0.646 | 0.53 | 0.62 | 0.464 | 0.359 | 0.373 | 0.587 | 0.27 | 1.05 | 0.972 | 0.993 | 1.05 | 0.661 | 0.548 | 0.682 | 0.601 | 0.4
4 | A-427 | 1.05 | 1.02 | 1.1 | 1.12 | 1.02 |  | 0.435 | 0.351 | 0.606 | 0.708 | 0.518 | 0.507 | 0.711 | 0.941 | 0.828 | 0.832 | 0.414
5 | NCI-H23 | 0.471 | 0.532 | 0.525 | 0.531 | 0.477 | 0.496 | 0.571 | 0.465 | 0.332 | 0.281 | 0.223 | 0.154 | 0.562 | 0.642 | 0.684 | 0.737 | 0.578
6 | NCI-H596 | 1.13 | 0.913 | 0.972 | 0.972 | 0.985 | 0.801 | 0.82 | 0.5 | 0.965 | 1.12 | 1.08 | 0.686 | 0.511 | 0.527 | 0.504 | 0.52 | 0.845
7 | NCI-H2087 | 1.07 | 1.05 | 1.16 | 1.03 | 0.94 |  | 0.603 | 0.45 | 1.24 | 1.27 | 1.07 | 0.973 | 0.656 | 0.646 | 0.608 | 0.584 | 0.545
8 | HCC-78 | 0.464 | 0.409 |  | 0.213 | 0.215 |  | 0.372 | 0.395 |  | 0.718 | 0.453 | 0.2 |  | 0.84 | 0.902 | 0.88 | 0.341
9 | NCI-H1734 | 0.801 | 0.747 | 0.802 | 0.647 | 0.616 | 0.473 | 0.673 | 0.617 | 0.45 | 0.68 | 0.372 | 0.235 | 0.446 | 0.414 | 0.448 | 0.473 | 0.632
10 | NCI-H1993 | 0.806 | 0.774 | 0.701 | 0.641 | 0.735 |  | 0.532 | 0.466 | 0.53 | 0.884 | 0.55 | 0.459 | 0.549 | 0.581 | 0.615 | 0.547 | 0.648
11 | HCC-827 | 0.999 | 1.05 | 0.94 | 0.986 | 0.886 | 0.687 | 0.83 | 0.841 | 0.171 | 0.223 | 0.167 | 0.219 | 0.23 | 0.256 | 0.232 | 0.212 | 0.721
12 | NCI-H1437 | 0.973 | 0.958 | 1.04 | 0.936 | 0.629 | 0.729 | 0.864 | 0.502 | 1.12 | 0.977 | 1.16 | 1.01 | 0.329 | 0.32 | 0.276 | 0.263 | 0.774
13 | EPLC-272H | 0.973 | 1.12 | 1.02 |  | 1.24 | 0.256 | 0.305 | 0.263 |  | 0.194 | 0.178 | 0.141 | 0.448 | 0.365 | 0.334 | 0.297 | 0.273
14 | NCI-H2126 | 0.632 | 0.604 | 0.579 | 0.576 | 0.593 | 0.489 | 0.847 | 0.692 | 0.865 | 1.04 | 0.971 | 0.887 | 0.509 | 0.708 | 0.619 | 0.583 | 0.658
15 | NCI-H1666 | 0.635 | 0.597 | 0.676 | 0.59 | 0.526 | 0.716 | 0.884 | 0.691 | 0.705 | 0.886 | 0.714 | 0.768 | 0.805 | 0.841 | 0.867 | 0.871 | 0.845
16 | RERF-LC-KJ | 0.803 | 0.845 | 0.852 | 0.721 | 0.747 | 0.578 | 0.569 | 0.438 | 0.864 | 0.916 | 0.832 | 0.894 | 0.492 | 0.427 | 0.447 | 0.374 | 0.47
